Measured values taken from ChEMBL document CHEMBL4177688, “Design, synthesis, and evaluation of A-ring-modified lamellarin N analogues as noncovalent inhibitors of the EGFR T790M/L858R mutant” (Bioorg Med Chem, 2017).

biological target: Epidermal growth factor receptor (Homo sapiens, UniProt P00533, L858R/T790M); test: Inhibition of recombinant EGFR (unknown origin) T790M/L858R double mutant preincubated for 30 mins followed by poly (Glu-Tyr) biotinylated peptide substrate addition measured after 30 mins in presence of ATP by ELISA
Sequence (P00533 25-1210 T790M/L858R limits assumed): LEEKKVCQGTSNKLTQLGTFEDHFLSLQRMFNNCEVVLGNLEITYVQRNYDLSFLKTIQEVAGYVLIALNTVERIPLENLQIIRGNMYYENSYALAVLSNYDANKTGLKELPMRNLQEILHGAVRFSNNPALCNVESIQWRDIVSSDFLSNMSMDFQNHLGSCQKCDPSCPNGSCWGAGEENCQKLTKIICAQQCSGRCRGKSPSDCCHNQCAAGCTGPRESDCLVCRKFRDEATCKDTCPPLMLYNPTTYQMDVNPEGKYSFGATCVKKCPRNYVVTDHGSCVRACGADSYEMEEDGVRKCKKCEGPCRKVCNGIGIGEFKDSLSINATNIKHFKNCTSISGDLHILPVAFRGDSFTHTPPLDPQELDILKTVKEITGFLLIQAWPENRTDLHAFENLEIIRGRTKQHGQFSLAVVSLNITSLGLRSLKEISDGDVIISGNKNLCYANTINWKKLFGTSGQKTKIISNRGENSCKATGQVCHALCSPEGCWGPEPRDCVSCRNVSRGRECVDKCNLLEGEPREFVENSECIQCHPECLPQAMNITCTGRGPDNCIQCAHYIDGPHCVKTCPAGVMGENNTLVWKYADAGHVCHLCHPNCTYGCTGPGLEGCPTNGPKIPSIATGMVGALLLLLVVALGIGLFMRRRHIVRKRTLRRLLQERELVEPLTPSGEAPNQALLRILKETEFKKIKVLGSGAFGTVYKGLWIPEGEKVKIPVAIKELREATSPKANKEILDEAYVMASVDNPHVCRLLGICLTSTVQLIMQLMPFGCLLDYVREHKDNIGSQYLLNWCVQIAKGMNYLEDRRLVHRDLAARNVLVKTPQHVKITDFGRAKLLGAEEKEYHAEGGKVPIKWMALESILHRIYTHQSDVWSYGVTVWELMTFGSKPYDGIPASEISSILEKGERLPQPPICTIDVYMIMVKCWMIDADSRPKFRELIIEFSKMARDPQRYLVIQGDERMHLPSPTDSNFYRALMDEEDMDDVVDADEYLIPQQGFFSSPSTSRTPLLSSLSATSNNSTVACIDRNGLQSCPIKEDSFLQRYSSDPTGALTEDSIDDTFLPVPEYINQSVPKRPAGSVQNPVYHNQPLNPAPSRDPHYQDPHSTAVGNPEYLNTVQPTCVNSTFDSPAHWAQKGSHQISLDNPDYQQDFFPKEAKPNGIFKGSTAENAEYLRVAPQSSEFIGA

Question: For COc1ccc(-c2c3c4cc(OC)c(OC)cc4oc(=O)c3n3ccc4cc(O)c(OC)cc4c23)cc1O, which IC50 is on record?
Answer: > 1000 nM

Question: COc1ccc(-c2c3c4cc(OCCN(C)C)c(OCCN(C)C)cc4oc(=O)c3n3ccc4cc(O)c(OC)cc4c23)cc1O was tested. Which IC50 did it give?
Answer: 233 nM

Question: With COc1ccc(-c2c3c4cc(OC)c(OCCN(C)C)cc4oc(=O)c3n3ccc4cc(O)c(OC)cc4c23)cc1O as the molecule, how does the IC50 read?
Answer: 560 nM

Question: For COc1ccc(-c2c3c4cc(OC)c(OCCCN(C)C)cc4oc(=O)c3n3ccc4cc(O)c(OC)cc4c23)cc1O, which IC50 is on record?
Answer: 188 nM

Question: COc1ccc(-c2c3c4cc(OC)c(OCCCNC(=N)N)cc4oc(=O)c3n3ccc4cc(O)c(OC)cc4c23)cc1O was tested. Which IC50 did it give?
Answer: 39 nM

Question: How did the IC50 turn out when COc1ccc(-c2c3c4cc(OCCCN5CCOCC5)c(OCCCN5CCOCC5)cc4oc(=O)c3n3ccc4cc(O)c(OC)cc4c23)cc1O was run?
Answer: > 1000 nM

Question: Which IC50 does the source give for COc1ccc(-c2c3c4cc(OC)c(OCCNC(=N)N)cc4oc(=O)c3n3ccc4cc(O)c(OC)cc4c23)cc1O here?
Answer: > 1000 nM

Question: COc1ccc(-c2c3c4cc(O)c(OCCCN(C)C)cc4oc(=O)c3n3ccc4cc(O)c(OC)cc4c23)cc1O was tested. Which IC50 did it give?
Answer: 82.6 nM

Question: COc1ccc(-c2c3c4cc(O)c(OC)cc4oc(=O)c3n3ccc4cc(O)c(OC)cc4c23)cc1O was tested. Which IC50 did it give?
Answer: 397 nM

Question: With COc1ccc(-c2c3c4cc(OCCCN(C)C)c(OCCCN(C)C)cc4oc(=O)c3n3ccc4cc(O)c(OC)cc4c23)cc1O as the molecule, how does the IC50 read?
Answer: 8.9 nM

Question: For COc1ccc(-c2c3c4cc(OCCN(C)C)c(OC)cc4oc(=O)c3n3ccc4cc(O)c(OC)cc4c23)cc1O, which IC50 is on record?
Answer: > 1000 nM

biological target: Epidermal growth factor receptor (Homo sapiens, UniProt P00533); assay type: single protein
Sequence (P00533 whole entry): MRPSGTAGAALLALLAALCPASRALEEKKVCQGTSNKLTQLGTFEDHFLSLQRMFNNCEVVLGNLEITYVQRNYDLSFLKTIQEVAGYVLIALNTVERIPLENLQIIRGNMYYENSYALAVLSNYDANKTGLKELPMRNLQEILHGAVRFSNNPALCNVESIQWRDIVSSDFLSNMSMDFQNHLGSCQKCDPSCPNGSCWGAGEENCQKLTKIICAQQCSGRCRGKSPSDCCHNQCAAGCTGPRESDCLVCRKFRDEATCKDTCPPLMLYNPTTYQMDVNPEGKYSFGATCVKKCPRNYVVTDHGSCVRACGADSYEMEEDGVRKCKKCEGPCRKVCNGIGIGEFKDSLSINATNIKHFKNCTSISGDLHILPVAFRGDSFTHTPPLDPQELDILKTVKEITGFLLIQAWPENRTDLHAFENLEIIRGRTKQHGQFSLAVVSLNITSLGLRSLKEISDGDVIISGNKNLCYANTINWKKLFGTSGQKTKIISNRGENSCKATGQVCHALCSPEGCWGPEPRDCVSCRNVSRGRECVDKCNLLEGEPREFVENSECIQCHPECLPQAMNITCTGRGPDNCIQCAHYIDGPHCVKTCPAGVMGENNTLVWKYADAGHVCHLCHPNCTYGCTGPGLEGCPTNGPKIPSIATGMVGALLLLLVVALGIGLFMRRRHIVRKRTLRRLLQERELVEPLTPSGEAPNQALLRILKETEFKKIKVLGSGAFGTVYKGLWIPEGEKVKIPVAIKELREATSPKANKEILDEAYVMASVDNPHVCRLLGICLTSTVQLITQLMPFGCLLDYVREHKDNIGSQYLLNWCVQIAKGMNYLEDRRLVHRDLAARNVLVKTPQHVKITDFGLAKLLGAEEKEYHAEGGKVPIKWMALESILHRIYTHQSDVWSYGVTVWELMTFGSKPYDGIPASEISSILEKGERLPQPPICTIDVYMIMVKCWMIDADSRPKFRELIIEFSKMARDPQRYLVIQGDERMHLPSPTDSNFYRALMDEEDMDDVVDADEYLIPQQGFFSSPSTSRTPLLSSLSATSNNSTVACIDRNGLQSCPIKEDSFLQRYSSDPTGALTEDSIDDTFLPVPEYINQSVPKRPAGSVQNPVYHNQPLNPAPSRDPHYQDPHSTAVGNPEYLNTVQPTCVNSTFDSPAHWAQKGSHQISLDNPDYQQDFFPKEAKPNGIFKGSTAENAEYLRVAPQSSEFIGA
Description: Inhibition of recombinant wild type EGFR (696 to C-terminal residues) (unknown origin) preincubated for 30 mins followed by poly (Glu-Tyr) biotinylated peptide substrate addition measured after 30 mins in presence of ATP by ELISA

Question: For COc1ccc(-c2c3c4cc(OC)c(OC)cc4oc(=O)c3n3ccc4cc(O)c(OC)cc4c23)cc1O, which IC50 is on record?
Answer: > 1000 nM

Question: How did the IC50 turn out when COc1ccc(-c2c3c4cc(OCCN(C)C)c(OCCN(C)C)cc4oc(=O)c3n3ccc4cc(O)c(OC)cc4c23)cc1O was run?
Answer: 191 nM

Question: COc1ccc(-c2c3c4cc(OC)c(OCCN(C)C)cc4oc(=O)c3n3ccc4cc(O)c(OC)cc4c23)cc1O was tested. Which IC50 did it give?
Answer: 595 nM

Question: With COc1ccc(-c2c3c4cc(OC)c(OCCCN(C)C)cc4oc(=O)c3n3ccc4cc(O)c(OC)cc4c23)cc1O as the molecule, how does the IC50 read?
Answer: 215 nM

Question: Which IC50 does the source give for COc1ccc(-c2c3c4cc(OC)c(OCCCNC(=N)N)cc4oc(=O)c3n3ccc4cc(O)c(OC)cc4c23)cc1O here?
Answer: 47 nM

Question: Which IC50 does the source give for COc1ccc(-c2c3c4cc(OCCCN5CCOCC5)c(OCCCN5CCOCC5)cc4oc(=O)c3n3ccc4cc(O)c(OC)cc4c23)cc1O here?
Answer: > 1000 nM

Question: With COc1ccc(-c2c3c4cc(OC)c(OCCNC(=N)N)cc4oc(=O)c3n3ccc4cc(O)c(OC)cc4c23)cc1O as the molecule, how does the IC50 read?
Answer: > 1000 nM

Question: COc1ccc(-c2c3c4cc(O)c(OCCCN(C)C)cc4oc(=O)c3n3ccc4cc(O)c(OC)cc4c23)cc1O was tested. Which IC50 did it give?
Answer: 47.8 nM

Question: COc1ccc(-c2c3c4cc(O)c(OC)cc4oc(=O)c3n3ccc4cc(O)c(OC)cc4c23)cc1O was tested. Which IC50 did it give?
Answer: 249 nM

Question: COc1ccc(-c2c3c4cc(OCCCN(C)C)c(OCCCN(C)C)cc4oc(=O)c3n3ccc4cc(O)c(OC)cc4c23)cc1O was tested. Which IC50 did it give?
Answer: 31.8 nM

Question: With COc1ccc(-c2c3c4cc(OCCN(C)C)c(OC)cc4oc(=O)c3n3ccc4cc(O)c(OC)cc4c23)cc1O as the molecule, how does the IC50 read?
Answer: 842 nM
